Active and inactive are the calls of the source.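 Rule for the calls: active = compounds giving half or more protection of infected cells from virus-caused growth loss, again on retest; inactive = the rest.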 Where a SMILES comes first, the peptide text is derived from it.
Test system: CEM cells HIV-1 protection, formazan growth assay
Test: NCI AIDS Antiviral Assay
Details: for IC50: measured here: growth of uninfected CEM cells
How it was run: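 Screen of anti-HIV-1 activity in human CEM cells using a formazan-based growth measurement at five drug concentrations. Hits with 50% or greater protection were repeated, and confirmation required reproducible complete protection.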

## COc1ccc2c(c1)CCC1=C2CC(=O)N2CCCCN12
  EC50: > 91.2 µM
  IC50: > 91.2 µM

## O=C1N=C2Sc3ccc4ccccc4c3N2C1=O
  EC50: > 355 µM
  IC50: 182 µM

## COc1ccc(/C=C2\C=Cc3ccccc32)cc1
  EC50: > 16.2 µM
  IC50: 13.8 µM

## N#CCc1c(C2(c3ccncc3)OCCO2)[nH]c2ccccc12
  EC50: > 117 µM
  IC50: 110 µM

## CN1C2(c3ccccc3)c3c(-c4ccccc4)sc(-c4ccccc4)c3C1(c1ccccc1)C1C(=O)N(c3ccccc3)C(=O)C12 (centres undefined)
  outcome: inactive

## N#CCC(=O)NC1C2CC3CC(C2)CC1C3 (centres undefined)
  EC50: > 229 µM
  IC50: 34.7 µM

## CC(Cc1ccccc1)NC(=O)CCNNC(=O)c1ccncc1 (centres undefined)
  EC50: > 200 µM
  IC50: > 200 µM

## Cc1nc2c(O)c3c(c(O)c2nc1C)C1C=CC3CC1
  EC50: > 200 µM
  IC50: 1.95 µM

## Cc1cc(OCC(O)CO)ccc1-c1ccccc1 (centres undefined)
  EC50: > 977 µM
  IC50: 295 µM

## CCOc1ccccc1N1C(=O)C(=O)C(c2nc3ccccc3o2)/C(=N\N)C1=O (centres undefined)
  outcome: inactive

## CC(=O)c1cc(C(C)=O)c(CC(=O)C(=O)Nc2cccc(C)c2C)nc1CC(=O)C(=O)Nc1cccc(C)c1C
  EC50: > 200 µM
  IC50: > 200 µM

## CC1=CC(=O)Nc2ccccc2S1
  EC50: > 234 µM
  IC50: 85.1 µM

## O=c1ccc2ccc(O)cc2o1
  EC50: > 1550 µM
  IC50: 302 µM

## COc1cc(C2C3=C(CCCC3=O)N(c3ccc(C)cc3)C3=C2C(=O)CCC3)c([N+](=O)[O-])cc1OC
  EC50: > 200 µM
  IC50: 145 µM

## NC(Cc1ccccc1)C(=O)N[C@H]1c2ccsc2/C(=N/O)[C@H]1O (some centres undefined)
  EC50: > 200 µM
  IC50: > 200 µM

## O=C(O)C1=NN(c2ccc(S(=O)(=O)O)cc2)C(=O)C1N=Nc1ccc(S(=O)(=O)O)cc1 (centres undefined)
  outcome: inactive

## N#Cc1ccc(C(O)C(F)(F)c2nc3ccccc3o2)cc1 (centres undefined)
  EC50: > 200 µM
  IC50: > 200 µM

## O=C1c2ccccc2S(=O)(=O)c2cc(-c3nn[nH]n3)ccc21
  EC50: > 200 µM
  IC50: > 200 µM

## CC[C@@H]1CC2CN3CCc4c([nH]c5ccc(OC)cc45)C(CO)(C2)C13 (some centres undefined)
  outcome: inactive

## COc1ccc(S(=O)(=O)Cc2ccc(C(=O)O)cc2[N+](=O)[O-])cc1
  EC50: > 708 µM
  IC50: 646 µM

## CC(C(=O)c1ccc(O)cc1)C1(O)C(=O)Nc2c(Cl)cc(Cl)cc21 (centres undefined)
  EC50: > 257 µM
  IC50: 112 µM

## CN(C)c1ccc(/C=C(\NC(=O)c2ccccc2)C(=O)Nc2cccc(C(=O)NCCCO)c2)cc1
  EC50: > 200 µM
  IC50: > 200 µM

## N#Cc1c(NC(=O)CN2CCOCC2)c(C(=O)Nc2ccccc2)n2c1CCC2
  EC50: > 200 µM
  IC50: > 200 µM

## O=C1O/C(=C(/Cl)c2cccc3ccccc23)c2ccccc21
  outcome: inactive

## O=P(O)(OCC(O)O)OCC(O)O
  outcome: inactive

## O=C(CCn1ccnc1)N1CCN(c2ccccc2)CC1
  EC50: > 871 µM
  IC50: 646 µM

## NC(C(=O)O)/C1=C/CCCCCC1 (centres undefined)
  EC50: > 200 µM
  IC50: > 200 µM

## C=CCOCC(O)CNCC(O)COCC=C (centres undefined)
  EC50: > 200 µM
  IC50: > 200 µM

## O=S(Nc1ccccc1)c1ccccc1Oc1ccccc1 (centres undefined)
  outcome: inactive

## C=CCC1(C)CCCN(Cc2ccccc2)C1=O (centres undefined)
  EC50: > 200 µM
  IC50: 105 µM

## CC(C)CCC[C@@H](C)[C@H]1CC[C@H]2C3=C[C@H](OS(=O)(=O)O)[C@@]4(O)C[C@@H](O)CC[C@]4(C)[C@@]3(O)CC[C@]12C
  EC50: > 200 µM
  IC50: 97.7 µM

## COC(=O)C=C(c1cc(Cl)c(OC)c(C(=O)OC)c1)c1cc(Cl)c(OC)c(C(=O)OC)c1
  EC50: > 200 µM
  IC50: 17.8 µM

## COc1ccc(NC(=O)/C(CC2=Nc3ccc([N+](=O)[O-])cc3NC2O)=N\NC(=O)C[N+](C)(C)C)c(OC)c1 (centres undefined)
  EC50: > 45.7 µM
  IC50: > 45.7 µM

## COC=C1C(=O)OC(C)(C)OC1=O
  EC50: 28.8 µM
  IC50: 107 µM

## CCOC(=O)NC(Nc1ccc(F)cc1)(C(=O)OCC)C(F)(F)F (centres undefined)
  outcome: inactive

## COc1ccc(NC(=O)c2oc3cc(O)ccc3c(=O)c2C)c([N+](=O)[O-])c1
  EC50: > 676 µM
  IC50: 245 µM

## O=C(O)CCCCCCCc1cccc(OCCOCCO)c1
  EC50: > 100 µM
  IC50: > 100 µM

## O=C(CN1C(=O)c2cccc3c(Br)ccc(c23)C1=O)c1ccc(F)cc1
  EC50: > 200 µM
  IC50: 52.5 µM

## COc1ccc(NC(=O)CCc2cc(C(C)(C)C)n[nH]2)cc1
  EC50: > 832 µM
  IC50: > 832 µM

## CC(C)C(NC(=O)C(N)CCC(=O)O)C(=O)O (stereo not drawn) (H-Glu-Val-OH; configuration not given here)
  outcome: inactive

## CC(Oc1ccccc1)C(=O)NN (centres undefined)
  EC50: > 200 µM
  IC50: > 200 µM

## COc1ccc(C(=O)c2ccc(OC)c3ccccc23)c2ccccc12
  EC50: > 200 µM
  IC50: 1.51 µM

## O=C1N[C@@H](Cc2ccccc2)C(=O)N2CCCC[C@H]12
  outcome: inactive

## N#Cc1nc(Cc2ccccc2)oc1N
  outcome: inactive

## N#CCCN(C1=NN(C(=O)CC(=O)Nc2ccc(Cl)cc2)C(c2ccccc2)C1)c1ccc(Cl)cc1 (centres undefined)
  EC50: > 50.1 µM
  IC50: > 50.1 µM

From PubChem BioAssay AID179 (DTP/NCI, 2004)
